Measured values published in patent US8546338B2, “Self-assembling hydrogels based on dicephalic peptide amphiphiles” (Johnson & Johnson Consumer Companies, Inc., priority 2010, dated 2013).
Where “and” joins values, the source holds several entries; their conditions need not be identical. Equal entries are not always repeated.

Tests used:
[1] = test system: human kidney derived cells (hKDCs); experiment: Cell viability of encapsulated hKDCs in DPA gels (Live/Dead); assay type: cell-based; details: 2% DPA gel, after 1, 2 and 3 weeks
Protocol: The viability and proliferation of cells in the gels was evaluated by encapsulating human kidney derived cells (hKDCs) in the gels. hKDC were isolated as described in US Patent Publication Number 2008/0112939. Cells were thawed from storage and cultured for four days in renal epithelial growth media (REGM) media. After four days, the cells were trypsinized and counted by the Guava ViaCount (Millipore, Billerica, Mass.) methodology. Cells were re-suspended in REGM media at a density of 1,000,000 cells/ml. Encapsulation of the cells in the gels was achieved by adding 100 μl cell suspension to 100 μl of a 4 wt % DPA solution in ultrapure in a 24 well plate, resulting in a final DPA concentration of 2%. The gels were incubated for 1 h at 37° C., 5% CO2 after which 1000 μl media was added on top of the gel. Cells were incubated at 37° C., 5% CO2. Every 3-4 days of culture, 500 μl media was replaced. The cells were cultured for 3 weeks and cells were assessed after 1, 2 and 3 weeks with Live/Dead.

[2] = test system: human internal mammary artery derived cells (IMACs); experiment: Cell viability of encapsulated IMACs in DPA gels (Live/Dead); assay type: cell-based; details: 2% DPA gel
Protocol: The viability and proliferation of cells in the gels was evaluated by encapsulating human internal mammary artery derived cells (IMACs) in the gels. IMACs were isolated as described in copending U.S. patent application Ser. No. 12/885,855. Cells were thawed from storage and cultured for four days in advanced DMEM/F12 media. After four days, the cells were trypsinized and counted by the Guava ViaCount (Millipore, Billerica, Mass.) methodology. Cells were re-suspended in advanced DMEM/F12 media at a density of 1,000,000 cells/ml. Encapsulation of the cells in the gels was achieved by adding 100 μl cell suspension to 100 μl of a 4 wt % DPA solution in ultrapure in a 24 well plate, resulting in a final DPA concentration of 2%. The gels were incubated for 1 h at 37° C., 5% CO2 after which 1000 μl media was added on top of the gel. Cells were incubated at 37° C., 5% CO2. Every 3-4 days of culture, 500 μl media was replaced. The cells were cultured for 3 weeks and cells were assessed after 1, 2 and 3 weeks with Live/Dead. […] The IMAC cells appear to have high motility in these gels as evidenced by the channels that they create in the gels.

[3] = Gelation experiments: inversion test for self-supporting hydrogels; assay type: physicochemical; details: for Gelation (self-supporting gel on inversion), DMEM: DPA solution in water mixed 1:1 with DMEM; for Gelation (self-supporting gel on inversion), PBS / Gelation (self-supporting gel on inversion), Water: final concentrations 1, 2 and 4 weight percent tested; for Concentration at which gel forms, Water / Gelation (self-supporting gel on inversion), Water: in water; for Concentration at which gel forms, DMEM: mixed with DMEM
Procedure, shortened: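 Peptide amphiphile dissolved in ultrapure water at twice final concentration, mixed 1:1 with PBS or DMEM to give 1, 2 or 4 wt%. Gelation scored if the gel held its weight on vial inversion; where none formed, 10 μl of 100 mg/cc CaCl2 was added.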

[4] = Oscillating rheology, strain sweep; assay type: physicochemical; details: 2 wt % gels in DMEM, formed for 30 minutes
Protocol: (§1) Oscillating rheology by the parallel plates method (radius=25 mm) was performed on 400 μl gels to assess the mechanical strengths of gels. Time sweeps were performed to evaluate kinetics of formation at a constant strain rate of 1% and frequency of 1 rad/s. Strain sweeps were performed ranging from 1-100% strain in increments of 2% at a constant frequency of 1 rad/s. Cross-over of G′ and G″ was used to determine the gel point and point of breakdown. Time sweeps were initiated immediately after mixing the solutions that lead to DPA hydrogel formation. In the strain sweeps, the gels were allowed to form on the plate for 30 minutes before the measurement is initiated.
Strains sweeps were performed on 2 wt % Gly-Phe-Gly-Phe-Gly-Phe-Gly-Gln-Gln-Ser (SEQ ID NO: 8), Gly-Phe-Gly-Phe-Gly-Phe-Gly-Gln-Gly-Ser (SEQ ID NO: 12) and Gly-Phe-Gly-Phe-Gly-Phe-Gly-Asn-Asn-Ser (SEQ ID NO: 11) gels in DMEM (FIG. 8). Gels were allowed to form for 30 minutes before the experiment was initiated.

Sprague-Dawley rats = experiment: Biocompatibility study, gel injected into intra-gluteal muscle pocket; assay type: in vivo; details: rat, in vivo
Protocol: A biocompatibility study was performed on Gly-Val-Ala-Val-Ala-Val-Ala-Glu-Gly-Glu (SEQ ID NO: 4), Gly-Phe-Gly-Phe-Gly-Phe-Gly-Glu-Gly-Glu (SEQ ID NO: 5) and Gly-Phe-Gly-Phe-Gly-Phe-Gly-Gln-Gln-Ser (SEQ ID NO: 8) DPAs. Lyophilized DPA powders were e-beam sterilized in 1.5 cc polypropylene cryovials at 15 KGy. Gels were pre-formed in 1 cc syringes by mixing a 4 wt % DPA solution in water for injection in a 1:1 ratio with DMEM followed by immediate aspiration into the syringe. In the case of the formulations with the Glu-Gly-Glu (SEQ ID NO: 27) sequence in the solubility enhancing region, 10 μl of a sterile 100 mg/cc calcium chloride solution was mixed in before aspiration into the syringe. An intra-gluteal muscle pocket was created in Sprague-Dawley rats after which 100 μl of gel was injected using a catheter fitted to the syringe. Subsequently, the pocket was closed with polyglactin 910 sutures sold under the tradename VICRYL (Ethicon, Somerville, N.J.). Tissue was harvested at 3, 7 and 28 days after implantation.

[5] = Oscillating rheology, time sweep (kinetics of formation); assay type: physicochemical; details: 2 wt % gels in DMEM
Protocol: as §1
The gelation process was initiated on the plate at 25° C. by the addition of 10 μl of 100 mg/ml calcium chloride solution to a solution of the DPA in DMEM.

[6] = listed as Gly-Phe-Gly-Phe-Gly-Phe-Gly-Gln-Gln-Ser(DPA)_ (SEQ ID NO: 8)

CCCCCCCCCCCCCCCC(=O)NC(C(=O)NCC(=O)N[C@@H](Cc1ccccc1)C(=O)NCC(=O)N[C@@H](Cc1ccccc1)C(=O)NCC(=O)N[C@@H](Cc1ccccc1)C(=O)NCC(=O)N[C@@H](CCC(N)=O)C(=O)N[C@@H](CCC(N)=O)C(=O)N[C@@H](CO)C(=O)O)C(=O)NCC(=O)N[C@@H](Cc1ccccc1)C(=O)NCC(=O)N[C@@H](Cc1ccccc1)C(=O)NCC(=O)N[C@@H](Cc1ccccc1)C(=O)NCC(=O)N[C@@H](CCC(N)=O)C(=O)N[C@@H](CCC(N)=O)C(=O)N[C@@H](CO)C(=O)O [Gly-Phe-Gly-Phe-Gly-Phe-Gly-Gln-Gln-Ser]
Viability of hKDC cells, Live/Dead [1]: very limited numbers of dead cells were detected | Viability of IMAC cells, Live/Dead ([2]; after 1, 2 and 3 weeks): very limited numbers of dead cells were detected | Motility of IMAC cells in the gel ([2]; three weeks, channels created in the gels): high motility | Behaviour of gel after disruption by vortexing ([3]; 4 wt % in water): reform when left alone | Time to self-supporting gel ([3]; 4 wt % in water): approx. 5 minutes | Gelation (self-supporting gel on inversion), DMEM ([3]; no calcium added): Yes and Yes, | Gelation (self-supporting gel on inversion), DMEM ([3]; no calcium added, listed as Gly-Phe-Gly-Phe-Gly-Phe-Gly-Gln-Gln-Ser(DPA)_ (SEQ ID NO: 8)): Yes, | Concentration at which gel forms, PBS [3]: 4 wt % and 4% | Gelation (self-supporting gel on inversion), PBS [3]: Yes and Yes, | Gelation (self-supporting gel on inversion), PBS [3, 6]: Yes, | Concentration at which gel forms, PBS [3, 6]: 4% | Concentration at which gel forms, Water [3]: 4 wt % and 4% | Gelation (self-supporting gel on inversion), Water [3]: Yes and Yes, | Gelation (self-supporting gel on inversion), Water [3, 6]: Yes, | Concentration at which gel forms, Water [3, 6]: 4% | Concentration at which gel forms, DMEM ([3]; no calcium added): 2% | Concentration at which gel forms, DMEM ([3]; no supplemental calcium): 2 wt % | Strain at which gel re-crosses the transition point (breakdown) [4]: 99 % strain | Strain at which gel re-crosses the transition point (breakdown) ([4]; listed as Gln-Gln-Ser (SEQ ID NO: 28)): ~100 % strain | Gross observations (Sprague-Dawley rats): some fluid buildup at day 3 | Gel point after mixing [5]: 74 s
